Columns and labels:
KPL-3C tumor = test: In vivo inhibition of tumor proliferation, concomitant use with tamoxifen, KPL-3C transplant; set-up: species or system BALB/c nude mouse; conditions: intraperitoneal every day, day 14
Text: FIG. 18 is a diagram illustrating the influence of concomitant use of the ERAP1-peptide and tamoxifen on tumor proliferation in a human breast cancer-transplanted mouse. KPL-3 cells were subcutaneously transplanted into the breast fat body of a BALB/c nude mouse. The treatment test individuals/group) was initiated (day 0) when the volume of the tumor reached about 50-80 mm^3 in the absence E2.
KPL-3 cells were subcutaneously transplanted into the breast fat body of a BALB/c nude mouse. When the volume of the tumor reached about 50-80 mm^3 in the absence of E2, the treatment test (5 individuals/group) was initiated (day 0). KPL-3C tumor heterotransplant-carrying mouse was administered with the ERAP1-peptide alone (3.5, 7 and 14 mg/kg), the scramble peptide alone (14 mg/kg), tamoxifen alone (4 mg/kg) or a combination of the ERAP1-peptide (14 mg/kg) and tamoxifen (4 mg/kg) every day by intraperitoneal injection.

[1] = biological target: T1, binding of inherent ERAP1 and inherent PHB2/REA (Homo sapiens, UniProt Q99623); test: Inhibition of ERAP1-PHB2/REA binding in cells, immunoprecipitation-Western blotting; assay type: cell-based; conditions: MCF-7 and KPL-3C cells; 10 μM peptide; 10 nM E2 24 hours
T1 construct: endogenous in cells; host or cells: MCF-7 and KPL-3C breast cancer cells
T1 sequence (Q99623 2-299 limits assumed): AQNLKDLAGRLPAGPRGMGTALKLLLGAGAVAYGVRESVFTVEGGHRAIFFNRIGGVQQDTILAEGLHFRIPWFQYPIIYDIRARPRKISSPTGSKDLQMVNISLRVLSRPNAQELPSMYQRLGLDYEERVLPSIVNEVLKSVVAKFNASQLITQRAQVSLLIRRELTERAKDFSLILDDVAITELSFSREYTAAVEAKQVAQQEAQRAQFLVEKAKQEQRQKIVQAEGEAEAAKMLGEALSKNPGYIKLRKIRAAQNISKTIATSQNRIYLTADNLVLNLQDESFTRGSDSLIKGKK

[2] = system: PHB2/REA localization in MCF-7 cells; test: Nuclear translocation of PHB2/REA (fractionation, immunoblotting, immunostaining); assay type: cell-based, human; conditions: for nuclear translocation of PHB2/REA, temporal: 1 hour to 24 hours after administration
Protocol: FIG. 3-1 is a diagram illustrating that ERAP1-peptide treatment promotes nuclear translocation of PHB2. […] MCF-7 cells were stimulated for 24 hours with 10 μM ERAP1-peptide and/or 10 nM E2. The cells were fractioned into mitochondria, cytoplasm, and nuclear fractions by specific gravity centrifugation. Then, each fraction was subjected to immunoblotting analysis using an anti-ERAP1 antibody and an anti-PHB2 antibody. PRDX3, α/β-Tublin (Tublin) and lamin B are markers for mitochondria, cytoplasm, and nuclear fractions, respectively (upper panel). The protein content of each fraction was evaluated with Coomassie-stained SDS-PAGE gel (lower panel). […] KPL-3C cells were treated for 24 hours with 10 μM HA-tagged ERAP1-peptide and/or 10 nM E2. Then, the cells were fractionated into cytoplasm and nuclear fractions by specific gravity centrifugation. Then, which fraction was immunoprecipitated with anti-ERα antibody, an anti-ERAP1 antibody or an anti-PHB2 antibody. Then, immunoblotting was performed with each antibody shown in the figure (an anti-ERAP1 antibody, an anti-ERα antibody, an anti-PHB2 antibody and an anti-HA antibody (Peptide)). α/β-Tubulin (Tubulin) and Lamin B are markers for cytoplasm and nuclear fractions, respectively.
FIG. 4-1 is a diagram illustrating that the ERAP1-peptide promotes nuclear translocation of PHB2. (A) The upper panel illustrates representative images of stained immune cells, showing the intracellular localization of PHB2. MCF-7 cells were treated with 10 μM ERAP1-peptide or ERAP1-scramble peptide. Subsequently, the cells were treated with 10 nM E2. After the immobilization, the cells were subjected to immunofluorescent staining using an anti-PHB2 antibody and DAPI (for discriminating the nucleus).
FIG. 4-2 is a diagram illustrating that the ERAP1-peptide promotes nuclear translocation of PHB2. (B) is a diagram illustrating the results of immunoblotting analysis by which the intracellular localization of PHB2 was detected, MCF-7 cells were treated with the ERAP1-peptide or the ERAP1-scramble peptide. Subsequently immediately, the cells were treated with 10 nM E2. The cells were fractionated into cytoplasm and nuclear fractions after 1 hour or 24 hours. Each fraction was immunoprecipitated with anti-ERα antibody, an anti-ERAP1 antibody or a PH82 antibody. […]
MCF-7 cells were seeded in an 8-well chamber (Laboratory-Tek II Chamber Slide System, Nalgen Nunc International, Naperville, Ill., USA) in 5×10^4 cells/well, and cultured under estrogen-free condition for 24 hours. […] The fluorescence image was obtained under Olympus IX71 microscope (Tokyo, Japan). […]

[3] = system: protein expression in MCF-7 cells; test: 2DICAL proteome analysis, MCF-7; assay type: cell-based, human; conditions: 10 μM, 10 nM E2 1 hour, versus E2 or E2 + scramble
Protocol: MCF-7 cells were treated with 10 μM ERAP1-peptide (Peptide) and the ERAP1-scramble peptide (scrPeptide). Then, immediately, the cells were stimulated with 10 nM E2 for 1 hour. Subsequently, the obtained cell lysate solution was digested with trypsin and subjected to 2DICAL. […] MCF-7 cells were treated with 10 μM ERAP1-peptide. Then, immediately, the cells were stimulated with 10 nM E2 for 5, 10 and 15 hours. Then, RNA extraction and then Cy3-cRNA synthesis were performed, and the Cy3-cRNA was subjected to the microarray. The data were statistically analyzed by GeneSpring software, and the ratio to the value at 0 hour was calculated. **P<0.01.
MCF-7 cells were treated with 10 μM ERAP1-peptide and ERAP1-scramble peptide. Then, immediately, the cells were stimulated with 10 nM E2. Then, the cells were fixed with methanol. The cells were dried under reduced pressure, and then treated with trypsin in the presence of 2% sodium deoxycholate and 5 M urea at 37° C. for 20 hours. The protein was extracted with ethyl acetate. […] The data were calculated as a ratio to the value at 0 hour.

## CSCC[C@H](NC(=O)[C@H](CCC(N)=O)NC(=O)[C@H](CCCNC(=N)N)NC(=O)[C@H](CCCNC(=N)N)NC(=O)[C@H](CCCNC(=N)N)NC(=O)[C@H](CCCNC(=N)N)NC(=O)[C@H](CCCNC(=N)N)NC(=O)[C@H](CCCNC(=N)N)NC(=O)[C@H](CCCNC(=N)N)NC(=O)[C@H](CCCNC(=N)N)NC(=O)[C@H](CCCNC(=N)N)NC(=O)[C@H](CCCNC(=N)N)NC(=O)[C@@H](N)CCCNC(=N)N)C(=O)N[C@@H](CC(C)C)C(=O)N[C@@H](CO)C(=O)N[C@@H](CC(=O)O)C(=O)N[C@@H](CC(C)C)C(=O)N[C@H](C(=O)N[C@@H](CC(C)C)C(=O)N[C@@H](CCC(N)=O)C(=O)N[C@@H](CC(C)C)C(=O)N[C@@H](CCCNC(=N)N)C(=O)N[C@@H](CCC(N)=O)C(=O)N[C@@H](CCCNC(=N)N)C(=O)O)[C@@H](C)O [ERAP1-peptide]
KPL-3C tumor
  antitumor effect (tumor volume): dose-dependent (3.5, 7 and 14 mg/kg) antitumor effect
[1]
  inhibition of the binding of inherent ERAP1 and inherent PHB2/REA: remarkably inhibited
[2]
  nuclear translocation of PHB2/REA, temporal: Prompt nuclear translocation of inherent PHB2/REA at 1 hour
[2]; E2 and peptide at the same time, 10 μM, 24 hours
  translocation of PHB2/REA from the cytoplasm into the nucleus: remarkable translocation of PHB2/REA from the cytoplasm into the nucleus
[3]
  change of protein expressions: decreased significantly and genome-widely

## DRQLQLSTLQRML (SEQ ID NO: 28) (ERAP1-scramble peptide) [reference compound]
KPL-3C tumor
  antitumor effect (tumor volume): the effect was not recognized
[1]
  inhibition of the binding of inherent ERAP1 and inherent PHB2/REA: not recognized in any of the cells
[2]
  nuclear translocation of PHB2/REA, temporal: not recognized

Source: US9725490B2, “ERAP1-derived peptide and use thereof” (TOKUSHIMA UNIVERSITY, priority 2011, dated 2017)
